# Article PMC4076210, “Discovery of Novel AKT Inhibitors with Enhanced Anti-Tumor Effects in Combination with the MEK Inhibitor” (PLoS ONE, 2014)
# Where two headings read alike, the source gives them in different places.
# Legend:
# Type in all cases: biochemical
# PDGFRβ(h) = target: T1, PDGFRβ(h) (Homo sapiens, UniProt P09619); assay: Kinase panel
# T1 construct: purchased Millipore KinaseProfiler
# SAPK2a(T106M)(h) = target: T2, SAPK2a(T106M)(h) (Homo sapiens, UniProt Q16539, T106M); assay: Kinase panel
# T2 construct: purchased Millipore KinaseProfiler
# T2 sequence (Q16539 whole entry T106M): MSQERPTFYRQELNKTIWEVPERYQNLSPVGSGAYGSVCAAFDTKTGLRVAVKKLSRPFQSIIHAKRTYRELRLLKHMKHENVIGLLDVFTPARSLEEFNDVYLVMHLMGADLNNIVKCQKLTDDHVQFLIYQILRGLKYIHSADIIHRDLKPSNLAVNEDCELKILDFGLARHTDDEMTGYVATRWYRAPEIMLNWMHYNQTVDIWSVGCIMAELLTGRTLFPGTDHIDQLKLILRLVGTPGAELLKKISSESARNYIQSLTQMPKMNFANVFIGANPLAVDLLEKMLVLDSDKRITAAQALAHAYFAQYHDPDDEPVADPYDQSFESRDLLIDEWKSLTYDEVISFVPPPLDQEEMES
# HIPK1(h) = target: T3, HIPK1(h) (Homo sapiens, UniProt Q86Z02); assay: Kinase panel
# T3 construct: purchased Millipore KinaseProfiler
# T3 sequence (Q86Z02 whole entry): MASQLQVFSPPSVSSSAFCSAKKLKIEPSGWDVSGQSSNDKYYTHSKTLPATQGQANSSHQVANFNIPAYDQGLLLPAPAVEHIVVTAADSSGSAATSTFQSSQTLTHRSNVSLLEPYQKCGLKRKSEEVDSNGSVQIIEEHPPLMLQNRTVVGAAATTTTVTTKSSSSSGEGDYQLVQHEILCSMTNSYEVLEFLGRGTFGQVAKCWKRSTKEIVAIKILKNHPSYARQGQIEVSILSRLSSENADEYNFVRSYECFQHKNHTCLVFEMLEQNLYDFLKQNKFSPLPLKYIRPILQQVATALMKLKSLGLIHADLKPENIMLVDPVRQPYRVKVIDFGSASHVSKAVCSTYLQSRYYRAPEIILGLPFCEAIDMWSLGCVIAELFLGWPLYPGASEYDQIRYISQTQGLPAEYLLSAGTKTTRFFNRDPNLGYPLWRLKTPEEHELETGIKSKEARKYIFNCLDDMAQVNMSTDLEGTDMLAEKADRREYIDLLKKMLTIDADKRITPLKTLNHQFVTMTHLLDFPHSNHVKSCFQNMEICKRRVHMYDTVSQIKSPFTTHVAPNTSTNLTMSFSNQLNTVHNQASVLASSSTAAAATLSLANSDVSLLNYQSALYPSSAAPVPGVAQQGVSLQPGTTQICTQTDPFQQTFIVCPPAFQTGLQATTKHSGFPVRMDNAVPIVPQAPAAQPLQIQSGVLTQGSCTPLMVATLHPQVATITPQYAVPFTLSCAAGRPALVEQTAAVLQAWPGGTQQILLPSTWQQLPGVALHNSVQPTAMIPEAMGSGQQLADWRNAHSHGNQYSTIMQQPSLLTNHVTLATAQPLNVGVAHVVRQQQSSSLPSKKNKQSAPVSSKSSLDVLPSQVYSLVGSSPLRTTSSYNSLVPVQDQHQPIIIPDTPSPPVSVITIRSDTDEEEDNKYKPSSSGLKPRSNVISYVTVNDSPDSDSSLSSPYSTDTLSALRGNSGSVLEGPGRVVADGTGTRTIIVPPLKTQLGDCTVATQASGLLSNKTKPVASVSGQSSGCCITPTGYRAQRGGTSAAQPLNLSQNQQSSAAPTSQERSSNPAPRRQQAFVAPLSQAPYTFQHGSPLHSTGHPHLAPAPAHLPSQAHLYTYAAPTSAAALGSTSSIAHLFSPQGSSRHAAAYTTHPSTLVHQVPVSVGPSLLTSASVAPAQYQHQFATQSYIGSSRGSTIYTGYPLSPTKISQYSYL
# MST2(h) = target: T4, MST2(h) (Homo sapiens, UniProt Q13188); assay: Kinase panel
# T4 construct: purchased Millipore KinaseProfiler
# T4 sequence (Q13188 1-491): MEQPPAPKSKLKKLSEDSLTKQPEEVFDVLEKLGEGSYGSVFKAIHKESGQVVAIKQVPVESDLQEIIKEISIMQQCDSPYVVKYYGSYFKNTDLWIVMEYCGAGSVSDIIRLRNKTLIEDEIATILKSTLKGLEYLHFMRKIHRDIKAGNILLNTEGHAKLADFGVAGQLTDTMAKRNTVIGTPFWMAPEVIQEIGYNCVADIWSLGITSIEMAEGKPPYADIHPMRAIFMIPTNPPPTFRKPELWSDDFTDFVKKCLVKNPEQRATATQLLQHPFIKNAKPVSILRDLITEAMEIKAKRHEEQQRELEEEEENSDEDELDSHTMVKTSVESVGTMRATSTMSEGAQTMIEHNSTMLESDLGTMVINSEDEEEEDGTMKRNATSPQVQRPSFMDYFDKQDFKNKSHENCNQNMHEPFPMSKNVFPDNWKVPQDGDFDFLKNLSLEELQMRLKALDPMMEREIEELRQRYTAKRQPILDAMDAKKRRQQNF
# TrkB(h) = target: T5, TrkB(h) (Homo sapiens, UniProt Q16620); assay: Kinase panel
# T5 construct: purchased Millipore KinaseProfiler
# T5 sequence (Q16620 32-822): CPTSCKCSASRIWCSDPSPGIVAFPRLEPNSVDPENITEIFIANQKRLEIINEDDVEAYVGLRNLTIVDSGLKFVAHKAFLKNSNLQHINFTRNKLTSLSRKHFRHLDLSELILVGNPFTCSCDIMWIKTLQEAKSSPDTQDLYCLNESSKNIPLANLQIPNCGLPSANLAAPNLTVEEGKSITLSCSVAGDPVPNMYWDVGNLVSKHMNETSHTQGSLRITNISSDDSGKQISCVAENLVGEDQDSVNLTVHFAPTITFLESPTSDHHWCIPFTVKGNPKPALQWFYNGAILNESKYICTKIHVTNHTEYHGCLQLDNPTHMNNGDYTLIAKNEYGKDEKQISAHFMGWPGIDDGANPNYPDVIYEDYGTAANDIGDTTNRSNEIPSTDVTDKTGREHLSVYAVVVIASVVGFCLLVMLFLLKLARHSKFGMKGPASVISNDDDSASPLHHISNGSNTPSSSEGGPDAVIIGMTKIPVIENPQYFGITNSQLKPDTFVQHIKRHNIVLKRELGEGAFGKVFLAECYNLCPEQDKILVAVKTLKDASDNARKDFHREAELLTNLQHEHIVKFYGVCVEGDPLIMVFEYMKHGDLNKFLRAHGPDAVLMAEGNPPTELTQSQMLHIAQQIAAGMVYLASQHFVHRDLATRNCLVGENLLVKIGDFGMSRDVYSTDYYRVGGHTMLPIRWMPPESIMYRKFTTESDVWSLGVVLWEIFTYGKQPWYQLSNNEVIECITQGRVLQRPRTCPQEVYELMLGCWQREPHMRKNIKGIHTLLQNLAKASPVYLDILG
# Fgr(h) = target: T6, Fgr(h) (Homo sapiens, UniProt P09769); assay: Kinase panel
# T6 construct: purchased Millipore KinaseProfiler
# T6 sequence (P09769 whole entry): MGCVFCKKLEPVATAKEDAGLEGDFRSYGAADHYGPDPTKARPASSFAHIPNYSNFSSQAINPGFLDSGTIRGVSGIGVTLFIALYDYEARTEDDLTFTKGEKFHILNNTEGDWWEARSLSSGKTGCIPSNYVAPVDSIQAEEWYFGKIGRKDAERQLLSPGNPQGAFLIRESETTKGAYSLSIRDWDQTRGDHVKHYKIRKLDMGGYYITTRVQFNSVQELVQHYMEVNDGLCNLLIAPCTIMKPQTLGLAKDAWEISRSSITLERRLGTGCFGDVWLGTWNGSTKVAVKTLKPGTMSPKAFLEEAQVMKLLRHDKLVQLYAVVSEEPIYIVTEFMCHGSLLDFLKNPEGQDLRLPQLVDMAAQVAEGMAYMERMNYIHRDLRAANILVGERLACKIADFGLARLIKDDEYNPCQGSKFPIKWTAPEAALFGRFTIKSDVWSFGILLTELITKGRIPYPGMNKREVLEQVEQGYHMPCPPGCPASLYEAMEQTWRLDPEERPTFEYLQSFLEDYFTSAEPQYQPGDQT
# EphA8(h) = target: T7, EphA8(h) (Homo sapiens, UniProt P29322); assay: Kinase panel
# T7 construct: purchased Millipore KinaseProfiler
# T7 sequence (P29322 28-1005): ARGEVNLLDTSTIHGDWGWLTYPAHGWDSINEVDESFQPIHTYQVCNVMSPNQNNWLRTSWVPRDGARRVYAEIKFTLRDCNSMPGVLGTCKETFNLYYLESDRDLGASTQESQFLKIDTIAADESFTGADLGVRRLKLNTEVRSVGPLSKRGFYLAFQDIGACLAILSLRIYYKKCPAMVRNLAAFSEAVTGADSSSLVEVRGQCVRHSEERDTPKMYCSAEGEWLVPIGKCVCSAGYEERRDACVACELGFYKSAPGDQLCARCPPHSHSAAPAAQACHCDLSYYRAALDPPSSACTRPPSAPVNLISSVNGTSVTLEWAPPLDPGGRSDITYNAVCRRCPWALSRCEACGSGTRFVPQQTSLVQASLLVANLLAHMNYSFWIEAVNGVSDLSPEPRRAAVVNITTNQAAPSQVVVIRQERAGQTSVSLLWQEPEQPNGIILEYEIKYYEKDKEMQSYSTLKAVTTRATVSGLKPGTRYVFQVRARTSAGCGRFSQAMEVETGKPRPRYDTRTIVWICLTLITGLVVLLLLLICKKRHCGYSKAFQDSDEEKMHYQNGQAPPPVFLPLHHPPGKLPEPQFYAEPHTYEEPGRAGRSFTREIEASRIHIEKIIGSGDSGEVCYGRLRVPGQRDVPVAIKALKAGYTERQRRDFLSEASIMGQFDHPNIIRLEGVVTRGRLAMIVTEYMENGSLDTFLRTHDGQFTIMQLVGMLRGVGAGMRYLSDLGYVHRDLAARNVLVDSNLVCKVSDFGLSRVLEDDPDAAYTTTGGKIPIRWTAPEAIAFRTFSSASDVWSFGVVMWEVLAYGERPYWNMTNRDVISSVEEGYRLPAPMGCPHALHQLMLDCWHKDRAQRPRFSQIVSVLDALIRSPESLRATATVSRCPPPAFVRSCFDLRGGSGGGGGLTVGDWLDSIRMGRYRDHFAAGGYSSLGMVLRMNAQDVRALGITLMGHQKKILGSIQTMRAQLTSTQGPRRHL
# MAPKAP-K3(h) = target: T8, MAPKAP-K3(h) (Homo sapiens, UniProt Q16644); assay: Kinase panel
# T8 construct: purchased Millipore KinaseProfiler
# T8 sequence (Q16644 whole entry): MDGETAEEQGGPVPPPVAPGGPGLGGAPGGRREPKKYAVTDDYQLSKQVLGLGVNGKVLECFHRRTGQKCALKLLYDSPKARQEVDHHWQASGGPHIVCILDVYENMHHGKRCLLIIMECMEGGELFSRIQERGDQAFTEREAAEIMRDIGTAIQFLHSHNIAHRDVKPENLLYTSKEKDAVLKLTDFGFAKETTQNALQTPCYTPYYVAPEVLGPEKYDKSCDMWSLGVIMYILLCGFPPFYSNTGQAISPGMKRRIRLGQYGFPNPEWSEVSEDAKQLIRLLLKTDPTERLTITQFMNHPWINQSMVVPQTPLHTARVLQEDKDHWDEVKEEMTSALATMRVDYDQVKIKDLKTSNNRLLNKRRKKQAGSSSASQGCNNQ
# SAPK4(h) = target: T9, SAPK4(h) (Homo sapiens, UniProt O15264); assay: Kinase panel
# T9 construct: purchased Millipore KinaseProfiler
# T9 sequence (O15264 1-365): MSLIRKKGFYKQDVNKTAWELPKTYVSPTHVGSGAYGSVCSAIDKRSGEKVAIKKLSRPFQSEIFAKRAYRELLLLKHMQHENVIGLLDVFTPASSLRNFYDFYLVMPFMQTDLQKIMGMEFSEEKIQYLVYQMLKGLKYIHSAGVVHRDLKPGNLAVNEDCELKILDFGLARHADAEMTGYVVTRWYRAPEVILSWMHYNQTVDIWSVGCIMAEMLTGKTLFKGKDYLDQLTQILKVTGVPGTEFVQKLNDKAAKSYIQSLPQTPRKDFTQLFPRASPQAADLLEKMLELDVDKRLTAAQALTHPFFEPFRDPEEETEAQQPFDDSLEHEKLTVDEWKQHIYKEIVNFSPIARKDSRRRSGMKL
# c-RAF(h) = target: T10, c-RAF(h) (Homo sapiens, UniProt P04049); assay: Kinase panel
# T10 construct: purchased Millipore KinaseProfiler
# GRK6(h) = target: T11, GRK6(h) (Homo sapiens, UniProt P43250); assay: Kinase panel
# T11 construct: purchased Millipore KinaseProfiler
# T11 sequence (P43250 whole entry): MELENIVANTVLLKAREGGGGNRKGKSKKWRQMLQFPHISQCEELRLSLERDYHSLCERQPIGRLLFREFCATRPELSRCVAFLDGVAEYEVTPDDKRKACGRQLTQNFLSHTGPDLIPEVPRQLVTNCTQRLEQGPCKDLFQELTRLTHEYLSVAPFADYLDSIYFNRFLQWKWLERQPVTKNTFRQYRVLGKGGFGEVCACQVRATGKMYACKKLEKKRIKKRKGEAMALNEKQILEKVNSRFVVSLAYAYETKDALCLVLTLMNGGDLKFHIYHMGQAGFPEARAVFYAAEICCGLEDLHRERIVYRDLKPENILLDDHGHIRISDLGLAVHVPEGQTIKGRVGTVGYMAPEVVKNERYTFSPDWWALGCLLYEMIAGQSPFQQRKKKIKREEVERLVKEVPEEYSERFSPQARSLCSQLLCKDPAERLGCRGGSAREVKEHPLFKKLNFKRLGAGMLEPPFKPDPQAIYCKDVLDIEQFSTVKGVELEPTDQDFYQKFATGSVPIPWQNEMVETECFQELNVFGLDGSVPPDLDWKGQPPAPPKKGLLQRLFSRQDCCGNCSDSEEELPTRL
# PKCζ = PKCζ (Homo sapiens, UniProt Q05513); assay: Kinase IC50 assay
# T1 sequence (P09619 33-1106): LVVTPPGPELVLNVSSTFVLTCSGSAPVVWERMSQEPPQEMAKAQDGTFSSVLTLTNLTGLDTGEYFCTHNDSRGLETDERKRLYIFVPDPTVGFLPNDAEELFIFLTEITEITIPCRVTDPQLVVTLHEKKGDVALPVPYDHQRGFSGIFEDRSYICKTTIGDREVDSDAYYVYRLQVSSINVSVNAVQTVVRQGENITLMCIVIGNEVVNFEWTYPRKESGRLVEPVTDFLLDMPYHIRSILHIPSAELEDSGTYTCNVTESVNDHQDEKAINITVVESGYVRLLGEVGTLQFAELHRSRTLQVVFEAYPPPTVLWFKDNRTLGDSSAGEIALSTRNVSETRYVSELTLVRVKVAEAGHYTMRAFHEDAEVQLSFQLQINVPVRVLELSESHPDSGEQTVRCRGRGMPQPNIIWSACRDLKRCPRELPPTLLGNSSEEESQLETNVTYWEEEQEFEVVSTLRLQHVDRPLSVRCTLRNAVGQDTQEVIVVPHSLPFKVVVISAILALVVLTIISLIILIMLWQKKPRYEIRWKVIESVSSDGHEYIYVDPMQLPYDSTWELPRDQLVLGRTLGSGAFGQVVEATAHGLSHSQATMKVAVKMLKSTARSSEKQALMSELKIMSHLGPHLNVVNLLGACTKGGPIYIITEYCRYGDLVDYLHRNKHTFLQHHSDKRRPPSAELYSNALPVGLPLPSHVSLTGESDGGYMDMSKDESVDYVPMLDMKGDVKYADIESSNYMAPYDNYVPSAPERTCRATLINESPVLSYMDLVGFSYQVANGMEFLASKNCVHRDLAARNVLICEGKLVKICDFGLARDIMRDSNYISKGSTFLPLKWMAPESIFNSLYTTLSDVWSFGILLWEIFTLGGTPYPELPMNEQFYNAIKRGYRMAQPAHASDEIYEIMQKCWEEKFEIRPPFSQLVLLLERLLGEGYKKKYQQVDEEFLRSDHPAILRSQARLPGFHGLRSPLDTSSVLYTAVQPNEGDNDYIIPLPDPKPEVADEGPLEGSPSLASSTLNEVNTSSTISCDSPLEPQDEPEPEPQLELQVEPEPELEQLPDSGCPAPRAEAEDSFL
smiles,measurement,setting,value
Cn1ncc(Cl)c1-c1cc(C(=O)N[C@H](CN)Cc2cccc(F)c2)sc1Cl [GSK2110183],inhibition at 0.5 µM,PDGFRβ(h),2%
same,inhibition at 10 µM,PDGFRβ(h),5%
same,inhibition at 0.5 µM,SAPK2a(T106M)(h),-5%
same,inhibition at 10 µM,SAPK2a(T106M)(h),-6%
same,inhibition at 0.5 µM,HIPK1(h),9%
same,inhibition at 10 µM,HIPK1(h),72%
same,inhibition at 0.5 µM,MST2(h),-4%
same,inhibition at 10 µM,MST2(h),-2%
same,inhibition at 0.5 µM,TrkB(h),15%
same,inhibition at 10 µM,TrkB(h),74%
same,inhibition at 0.5 µM,Fgr(h),3%
same,inhibition at 10 µM,Fgr(h),45%
same,inhibition at 0.5 µM,EphA8(h),-19%
same,inhibition at 10 µM,EphA8(h),-7%
same,inhibition at 0.5 µM,MAPKAP-K3(h),4%
same,inhibition at 10 µM,MAPKAP-K3(h),10%
same,inhibition at 0.5 µM,SAPK4(h),3%
same,inhibition at 10 µM,SAPK4(h),64%
same,inhibition at 0.5 µM,c-RAF(h),-2%
same,inhibition at 10 µM,c-RAF(h),11%
same,inhibition at 0.5 µM,GRK6(h),-8%
same,inhibition at 10 µM,GRK6(h),10%
same,IC50,PKCζ,> 1000 nM
Cn1ncc(Cl)c1-c1cc(C(=O)N[C@H](CN)Cc2ccc(F)c(F)c2)oc1Cl [GSK2141795],inhibition at 0.5 µM,"PDGFRβ(h); 0.5 µM, read-out: % Inhibition",-7%
same,inhibition at 10 µM,"PDGFRβ(h); 10 µM, read-out: % Inhibition",-4%
same,inhibition at 0.5 µM,"SAPK2a(T106M)(h); 0.5 µM, read-out: % Inhibition",-15%
same,inhibition at 10 µM,"SAPK2a(T106M)(h); 10 µM, read-out: % Inhibition",-33%
same,inhibition at 0.5 µM,"HIPK1(h); 0.5 µM, read-out: % Inhibition",2%
same,inhibition at 10 µM,"HIPK1(h); 10 µM, read-out: % Inhibition",62%
same,inhibition at 0.5 µM,"MST2(h); 0.5 µM, read-out: % Inhibition",-2%
same,inhibition at 10 µM,"MST2(h); 10 µM, read-out: % Inhibition",4%
same,inhibition at 0.5 µM,"TrkB(h); 0.5 µM, read-out: % Inhibition",27%
same,inhibition at 10 µM,"TrkB(h); 10 µM, read-out: % Inhibition",85%
same,inhibition at 0.5 µM,"Fgr(h); 0.5 µM, read-out: % Inhibition",2%
same,inhibition at 10 µM,"Fgr(h); 10 µM, read-out: % Inhibition",68%
same,inhibition at 0.5 µM,"EphA8(h); 0.5 µM, read-out: % Inhibition",-4%
same,inhibition at 10 µM,"EphA8(h); 10 µM, read-out: % Inhibition",25%
same,inhibition at 0.5 µM,"MAPKAP-K3(h); 0.5 µM, read-out: % Inhibition",-8%
same,inhibition at 10 µM,"MAPKAP-K3(h); 10 µM, read-out: % Inhibition",-2%
same,inhibition at 0.5 µM,"SAPK4(h); 0.5 µM, read-out: % Inhibition",-9%
same,inhibition at 10 µM,"SAPK4(h); 10 µM, read-out: % Inhibition",54%
same,inhibition at 0.5 µM,"c-RAF(h); 0.5 µM, read-out: % Inhibition",-4%
same,inhibition at 10 µM,"c-RAF(h); 10 µM, read-out: % Inhibition",13%
same,inhibition at 0.5 µM,"GRK6(h); 0.5 µM, read-out: % Inhibition",-16%
same,inhibition at 10 µM,"GRK6(h); 10 µM, read-out: % Inhibition",26%
same,IC50,PKCζ,> 1000 nM
